Test results reported in ChEMBL document CHEMBL3593163, “Synthesis and Characterization of 5-Hydroxy-2-(2-phenylethyl)chromone (5-HPEC) and Its Analogues as Non-nitrogenous 5-HT2B Ligands” (J Nat Prod, 2015).

Columns and labels:
[1] = biological target: T1, 5-hydroxytryptamine receptor 2C (Homo sapiens) (UniProt P28335); assay: Displacement of [3H]mesulergine from human 5HT2C receptor expressed in Flp-IN HEK cell membranes at 10 uM; conditions: HEK293
T1 sequence (whole entry): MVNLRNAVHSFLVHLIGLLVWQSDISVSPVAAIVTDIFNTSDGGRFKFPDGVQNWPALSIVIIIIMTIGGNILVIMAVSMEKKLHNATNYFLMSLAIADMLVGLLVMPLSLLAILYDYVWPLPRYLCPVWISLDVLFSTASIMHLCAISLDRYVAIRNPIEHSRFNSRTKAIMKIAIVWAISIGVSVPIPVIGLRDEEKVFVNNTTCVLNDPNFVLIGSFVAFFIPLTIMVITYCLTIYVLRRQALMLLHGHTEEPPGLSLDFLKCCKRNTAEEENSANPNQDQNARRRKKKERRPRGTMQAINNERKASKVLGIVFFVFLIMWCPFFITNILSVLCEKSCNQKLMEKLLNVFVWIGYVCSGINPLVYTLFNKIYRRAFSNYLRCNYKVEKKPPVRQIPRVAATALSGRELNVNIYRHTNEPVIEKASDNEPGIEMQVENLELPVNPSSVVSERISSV

[2] = biological target: 5-hydroxytryptamine receptor 2A (Homo sapiens) (UniProt P28223); assay: Displacement of [3H]ketanserin from human 5HT2A receptor expressed in HEKT cells membranes at 10 uM; format: cell membranes
[3] = biological target: 5-hydroxytryptamine receptor 2B (Homo sapiens) (UniProt P41595); assay: Displacement of [3H]LSD from human 5HT2B receptor expressed in stable HEK cells membranes at 10 uM; format: cell membranes; conditions: HEK293
[4] = biological target: 5-hydroxytryptamine receptor 2B (Homo sapiens) (UniProt P41595); assay: Potency index, ratio of pKi for 5-HPEC to pKi for test compound against human 5HT2B receptor expressed in stable HEK cells membranes; format: cell-based; conditions: HEK293
[5] = biological target: 5-hydroxytryptamine receptor 2B (Homo sapiens) (UniProt P41595); assay: Agonist activity at human 5HT2B receptor expressed in Flp-IN HEK cells at 10 um by calcium mobilization assay relative to 5-HT; format: functional, cell-based; conditions: HEK293
[6] = biological target: 5-hydroxytryptamine receptor 2B (Homo sapiens) (UniProt P41595); assay: Antagonist activity against human 5HT2B receptor expressed in Flp-IN HEK cells assessed as inhibition of 5-HT-induced response at 10 uM by calcium mobilization assay; format: functional, cell-based; conditions: HEK293

Sequence of 5-hydroxytryptamine receptor 2A (Homo sapiens) (P28223 whole entry): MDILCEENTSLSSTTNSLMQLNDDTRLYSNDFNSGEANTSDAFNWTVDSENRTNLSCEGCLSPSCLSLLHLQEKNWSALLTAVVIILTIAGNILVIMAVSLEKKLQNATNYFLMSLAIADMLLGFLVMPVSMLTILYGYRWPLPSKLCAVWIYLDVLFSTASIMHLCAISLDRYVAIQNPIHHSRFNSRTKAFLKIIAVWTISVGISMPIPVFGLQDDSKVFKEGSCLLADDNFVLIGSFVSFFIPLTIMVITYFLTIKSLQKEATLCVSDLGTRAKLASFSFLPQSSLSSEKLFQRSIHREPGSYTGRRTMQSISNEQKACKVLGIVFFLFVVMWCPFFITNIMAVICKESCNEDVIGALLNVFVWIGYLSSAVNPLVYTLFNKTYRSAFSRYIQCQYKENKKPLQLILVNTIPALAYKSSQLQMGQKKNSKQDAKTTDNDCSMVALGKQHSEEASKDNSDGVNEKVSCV
Sequence of 5-hydroxytryptamine receptor 2B (Homo sapiens) (P41595 whole entry): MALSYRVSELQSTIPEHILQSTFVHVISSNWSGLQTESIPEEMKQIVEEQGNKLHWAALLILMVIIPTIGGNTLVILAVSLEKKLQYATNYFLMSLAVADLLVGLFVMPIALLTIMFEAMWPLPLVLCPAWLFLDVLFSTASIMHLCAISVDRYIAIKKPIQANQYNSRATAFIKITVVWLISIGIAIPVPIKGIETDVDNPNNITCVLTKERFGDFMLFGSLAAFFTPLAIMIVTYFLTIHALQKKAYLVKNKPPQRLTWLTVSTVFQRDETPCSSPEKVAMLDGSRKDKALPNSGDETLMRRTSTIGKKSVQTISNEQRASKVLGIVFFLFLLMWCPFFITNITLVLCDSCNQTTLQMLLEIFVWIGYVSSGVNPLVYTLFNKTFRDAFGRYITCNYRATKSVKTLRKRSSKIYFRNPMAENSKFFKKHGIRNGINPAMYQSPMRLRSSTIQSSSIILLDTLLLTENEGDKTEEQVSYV

Row | SMILES | inhibition [1] [%] | inhibition [2] [%] | inhibition [3] [%] | Ratio [4] | Efficacy [5] [%] | inhibition [6] [%]
1 | O=c1cc(CCc2cccc(O)c2)oc2cc(O)ccc12 | 0 | 23.2 | 25.3 | – | – | –
2 | O=c1cc(CCc2ccc(O)cc2)oc2cc(O)ccc12 | 53.1 | 33.3 | 40.8 | – | – | –
3 | O=c1cc(CCc2ccccc2)oc2cc(O)ccc12 | 33.7 | 35.5 | 34.2 | – | – | –
4 | O=c1cc(CCc2ccccc2O)oc2cc(O)ccc12 | 44 | 47.9 | 16.6 | – | – | –
5 | O=c1cc(CCc2ccco2)oc2cccc(O)c12 | 24.2 | 12.4 | 68.8 | – | – | –

Now from value to compound:

Row | inhibition [1] [%] | inhibition [2] [%] | inhibition [3] [%] | Ratio [4] | Efficacy [5] [%] | inhibition [6] [%] | SMILES
6 | – | – | – | 10 | 0.23 | 20.5 | O=c1cc(CCCc2ccccc2)oc2cccc(O)c12
7 | 7 | – | – | – | – | – | O=c1cc(COc2ccccc2)oc2cccc(O)c12
8 | 42.1 | 3.2 | 77.7 | – | – | – | O=c1cc(COCc2ccccc2)oc2cccc(O)c12
9 | 30.4 | 39 | 76.3 | – | – | – | O=c1cc(CCc2cccc(O)c2)oc2cccc(O)c12
10 | 23.8 | 24.3 | 12.8 | – | – | – | O=c1cc(CCc2ccccc2O)oc2cccc(O)c12
